From ChEMBL document CHEMBL1201862, “PubChem BioAssay data set” (2004)
Calls of active or inactive are those of the source. For most assays here, no stated cut-off is given here; in the data, actives have a measured IC50 and inactives only a lower limit.

Columns and labels:
Type in all cases: functional
[1] = biological target: T1, Sentrin-specific protease 8 (Homo sapiens, UniProt Q96LD8);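 further: luminescence read-out of SENP8 inhibition, dose-response confirmation following an ultra-high-throughput screen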
T1 sequence (Q96LD8 whole entry): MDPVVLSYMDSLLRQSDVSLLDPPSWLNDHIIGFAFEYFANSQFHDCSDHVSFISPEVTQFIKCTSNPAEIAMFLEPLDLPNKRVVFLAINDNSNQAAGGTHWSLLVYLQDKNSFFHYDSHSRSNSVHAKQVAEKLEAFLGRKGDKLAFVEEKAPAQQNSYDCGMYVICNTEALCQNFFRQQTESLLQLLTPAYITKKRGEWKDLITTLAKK

[2] = biological target: T2, Sentrin-specific protease 7 (Homo sapiens, UniProt Q9BQF6);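 further: Luminescence-based dose-response confirmation of ultra-high-throughput screening hits, measuring inhibition of SENP7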
T2 sequence (Q9BQF6 whole entry): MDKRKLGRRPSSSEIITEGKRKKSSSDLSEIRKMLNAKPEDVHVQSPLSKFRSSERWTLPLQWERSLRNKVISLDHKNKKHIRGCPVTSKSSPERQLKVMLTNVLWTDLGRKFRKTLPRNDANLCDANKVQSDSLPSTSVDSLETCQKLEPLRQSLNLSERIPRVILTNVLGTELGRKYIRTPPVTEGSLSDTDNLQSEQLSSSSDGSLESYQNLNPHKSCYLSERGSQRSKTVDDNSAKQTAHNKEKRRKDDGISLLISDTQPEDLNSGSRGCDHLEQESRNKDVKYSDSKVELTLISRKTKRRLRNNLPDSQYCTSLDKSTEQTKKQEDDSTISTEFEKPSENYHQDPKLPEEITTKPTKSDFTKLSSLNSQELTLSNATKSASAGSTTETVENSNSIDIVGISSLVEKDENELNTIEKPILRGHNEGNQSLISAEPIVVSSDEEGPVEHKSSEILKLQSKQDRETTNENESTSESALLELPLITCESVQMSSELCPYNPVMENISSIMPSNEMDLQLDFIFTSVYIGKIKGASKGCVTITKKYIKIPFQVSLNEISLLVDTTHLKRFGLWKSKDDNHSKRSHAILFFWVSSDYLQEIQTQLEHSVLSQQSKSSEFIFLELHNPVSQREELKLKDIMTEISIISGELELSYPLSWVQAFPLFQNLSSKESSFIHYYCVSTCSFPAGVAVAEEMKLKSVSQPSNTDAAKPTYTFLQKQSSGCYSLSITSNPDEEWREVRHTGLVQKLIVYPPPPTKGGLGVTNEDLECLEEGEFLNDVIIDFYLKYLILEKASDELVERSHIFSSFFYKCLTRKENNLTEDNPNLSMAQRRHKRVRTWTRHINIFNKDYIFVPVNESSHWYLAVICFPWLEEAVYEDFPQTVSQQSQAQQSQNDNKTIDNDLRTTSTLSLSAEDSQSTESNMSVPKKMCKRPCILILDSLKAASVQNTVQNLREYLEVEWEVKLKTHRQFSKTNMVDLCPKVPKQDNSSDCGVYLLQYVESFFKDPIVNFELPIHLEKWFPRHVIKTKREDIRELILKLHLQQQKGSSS

[3] = biological target: T3, Sentrin-specific protease 6 (Homo sapiens, UniProt Q9GZR1);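 further: Luminescence-based dose-response confirmatory assay of SENP6 inhibition, following up an ultra-high-throughput screen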
T3 sequence (Q9GZR1 whole entry): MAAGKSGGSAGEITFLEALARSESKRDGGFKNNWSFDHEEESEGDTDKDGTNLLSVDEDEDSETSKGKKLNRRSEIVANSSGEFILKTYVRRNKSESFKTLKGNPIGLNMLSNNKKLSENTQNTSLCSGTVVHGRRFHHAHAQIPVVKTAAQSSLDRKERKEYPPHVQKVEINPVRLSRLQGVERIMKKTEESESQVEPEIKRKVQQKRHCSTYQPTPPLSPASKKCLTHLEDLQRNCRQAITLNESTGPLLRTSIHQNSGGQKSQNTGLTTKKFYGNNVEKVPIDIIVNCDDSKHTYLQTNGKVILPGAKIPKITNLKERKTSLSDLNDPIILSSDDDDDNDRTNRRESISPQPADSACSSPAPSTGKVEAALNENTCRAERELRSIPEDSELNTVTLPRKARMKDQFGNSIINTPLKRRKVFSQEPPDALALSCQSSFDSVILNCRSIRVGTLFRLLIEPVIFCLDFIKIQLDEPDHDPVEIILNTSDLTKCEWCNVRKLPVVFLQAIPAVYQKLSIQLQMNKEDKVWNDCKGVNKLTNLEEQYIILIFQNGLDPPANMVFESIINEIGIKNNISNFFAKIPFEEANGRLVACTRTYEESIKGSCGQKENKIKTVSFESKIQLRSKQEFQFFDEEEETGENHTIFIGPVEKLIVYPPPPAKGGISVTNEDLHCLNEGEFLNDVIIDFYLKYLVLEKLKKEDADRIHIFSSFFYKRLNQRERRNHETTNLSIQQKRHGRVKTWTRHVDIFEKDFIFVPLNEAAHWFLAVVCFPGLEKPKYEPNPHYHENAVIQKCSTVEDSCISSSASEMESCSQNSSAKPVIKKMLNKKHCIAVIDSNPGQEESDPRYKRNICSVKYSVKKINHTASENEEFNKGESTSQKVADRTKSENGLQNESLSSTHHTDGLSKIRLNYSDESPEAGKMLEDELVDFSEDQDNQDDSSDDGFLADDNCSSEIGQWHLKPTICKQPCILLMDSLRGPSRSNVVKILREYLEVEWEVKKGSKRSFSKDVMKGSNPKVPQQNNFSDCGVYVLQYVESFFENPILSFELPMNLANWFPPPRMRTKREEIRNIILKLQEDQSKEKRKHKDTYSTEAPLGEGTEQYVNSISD

Caspase-3 = biological target: T4, Caspase-3 (Homo sapiens, UniProt P42574);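 further: Dose-response selectivity test against caspase-3 for candidate inhibitors of sentrin-specific proteases (SENPs)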
T4 sequence (P42574 whole entry): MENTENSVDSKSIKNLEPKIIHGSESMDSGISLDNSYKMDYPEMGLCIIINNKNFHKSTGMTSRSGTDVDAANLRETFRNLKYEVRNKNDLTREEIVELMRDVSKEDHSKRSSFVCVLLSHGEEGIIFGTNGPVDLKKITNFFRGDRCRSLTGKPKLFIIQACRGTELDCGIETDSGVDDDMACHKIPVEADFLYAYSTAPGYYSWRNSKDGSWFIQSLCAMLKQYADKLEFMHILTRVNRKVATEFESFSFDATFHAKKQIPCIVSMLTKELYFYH

HEK293 = assay: EBV LMP1 TES2 canonical NF-kB signalling blockers – cell-based, HEK293, luciferase, cherry-pick, dose response (AID 588343); conditions: Homo sapiens

| SMILES | IC50 [1] | IC50 [2] | IC50 [3] | IC50 (Caspase-3) | AC50 (HEK293) |
| --- | --- | --- | --- | --- | --- |
| COn1c(-c2ccccc2)nc2ccc(Cl)cc21 | 34.9 µM (active) | 13.1 µM (active) | 30 µM (active) | 20.1 µM (active) | – |
| CC1CCCN(C(=O)c2ccc(-c3ccccc3Cl)o2)C1 (centres undefined) | 31.4 µM (active) | 15.2 µM (active) | 27.6 µM (active) | 34.7 µM (active) | – |
| COc1ccc(-c2csc3ncnc(NCCO)c23)cc1 | – | – | – | – | 13.9 µM (active) |
| CC(C)CC(=NNC(=O)c1ccncc1)c1cc(Cl)ccc1O | – | – | – | – | 4.28 µM (active) |
| CCOC(=O)/C(=N\Nc1ncnc2ccccc12)c1ccc(OC)cc1 | 14.2 µM (active) | 3.39 µM (active) | 5.23 µM (active) | 16.9 µM (active) | – |
